Values of other authors, collected in PMC12394750, “2H-1,4-Benzoxazin-3(4H)-one linked 1,2,3-triazole derivatives and their study on inducing DNA damage in tumor cells” (Frontiers in Pharmacology, 2025).

Columns and labels:
[1] = tested on: A549 cell; design: method as in Zhou et al., 2014; details: ref Zhou et al., 2014; read-out: Inhibition of A549 cell proliferation, IC50; cited from earlier work
[2] = tested on: MCF-7 cells; design: method as in Nagavelli et al., 2016; details: ref Nagavelli et al., 2016; cited from earlier work
[3] = tested on: HeLa cells; design: method as in Nagavelli et al., 2016; details: ref Nagavelli et al., 2016; cited from earlier work
[4] = tested on: A549 cancer cells; design: method as in Feng et al., 2010; details: ref Feng et al., 2010; cited from earlier work
[5] = tested on: MV4-11 cancer cells; design: method as in Feng et al., 2010; details: ref Feng et al., 2010; cited from earlier work
[6] = tested on: DLD-1 cancer cells; design: method as in Feng et al., 2010; details: ref Feng et al., 2010; cited from earlier work
[7] = biological target: mineralocorticoid receptor; design: method as in Hasui et al., 2011; details: ref Hasui et al., 2011; read-out: Mineralocorticoid receptor antagonist IC50; cited from earlier work

COc1cc(/C=C/C(=O)c2ccc3c(c2)NC(=O)CO3)cc(OC)c1 [compound 3c]
IC50 [1]: 3290 nM

COc1cccc(-c2ccc3c(c2)OCC(=O)N3Cc2cn(-c3cc(Cl)cc(Cl)c3)nn2)c1 [compound 5b]
Cytotoxicity against MCF-7, IC50 [2]: 17.08 µg/mL | Cytotoxicity against HeLa, IC50 [3]: 15.38 µg/mL

O=C1COc2ccc(-c3[nH]c(-c4ccc(C(F)(F)F)cc4)nc3-c3ccccc3)cc2N1 [compound 9c]
Viability of A549 cancer cells [4]: significantly reduced | Viability of MV4-11 cancer cells [5]: significantly reduced | Viability of DLD-1 cancer cells [6]: significantly reduced

Cc1cc(F)ccc1-n1nc(C(F)(F)F)cc1-c1ccc2c(c1)NC(=O)CO2 [compound 14n]
IC50 [7]: 41 nM
